Results from paper PMC3863468 (BioMed Research International, 2013).
Blank lines part the entries; values can stand above or below the compound they belong to.

Assays:
[1] = Pharmacokinetic experiment: serum imatinib and N-desmethyl imatinib by HPLC after oral imatinib with or without apigenin; conditions: for AUC(0–t) / AUC(0–∞) / C max / CLz/F / MRT(0–t) / MRT(0–∞) / T max / Vz/F / t (1/2)z: then single oral 30 mg/kg imatinib, rat serum, n = 5
Procedure: HPLC system (Agilent 1100) was equipped with quaternary pump, on-line vacuum degasser, autosampler, column compartment, diode array detector, and Agilent Chem Station Rev A.10.02. […] The detection wavelength was 282 nm, and the injection volume was 20.0 μL.
The serum samples were prepared using liquid-liquid extraction technique. A 300 μL aliquot of the serum sample was taken in a 10 mL glass test tube, and on that 20 μL of IS (100 μg/mL) was spiked and 150 μL of sodium hydroxide solution (0.01 moL/L) was added. After vortex mixing for 30 s, 3 mL of ethyl acetate was added, and the mixture was vortexed for 1 min and then centrifuged at 3000 ×g for 5 min. The organic layer was transferred into another 5 mL tube and evaporated to dryness under a stream of nitrogen gas at 40°C. The residue was reconstituted in 100 μL of mobile phase and vortex-mixed for 1 min, and 20 μL of aliquot was injected into the HPLC system for analysis.
Experimental values were expressed as x-±s . Statistical analyses of main pharmacokinetic parameters were performed by Student's unpaired test using SPSS 16.0 software. A value of P < 0.05 was considered to be significant between two groups.

[2] = cited from earlier work
[3] = group B: apigenin 165 mg/kg for 15 days
[4] = group C: single dose apigenin 165 mg/kg
[5] = group D (single dose apigenin 252 mg/kg) vs group B, rats, 30 mg/kg imatinib
[6] = group D: single dose apigenin 252 mg/kg
[7] = short-term 165 mg/kg apigenin (group C), printed comparison with group B, rats, 30 mg/kg imatinib

AUC(0–t) ([1]; group A: control (0.5% CMC-Na)): 5977 ± 1626 ng·h/mL
AUC(0–∞) ([1]; group A: control (0.5% CMC-Na)): 6827 ± 2595 ng·h/mL
C max ([1]; group A: control (0.5% CMC-Na)): 678 ± 147 ng/mL
CLz/F ([1]; group A: control (0.5% CMC-Na)): 81.9 ± 29.7 mL/min/kg
MRT(0–t) ([1]; group A: control (0.5% CMC-Na)): 7.085 ± 1.135 h
MRT(0–∞) ([1]; group A: control (0.5% CMC-Na)): 9.718 ± 4.636 h
T max ([1]; group A: control (0.5% CMC-Na)): 3.6 ± 0.894 h
Vz/F ([1]; group A: control (0.5% CMC-Na)): 32.8 ± 10.3 L/kg
t (1/2)z ([1]; group A: control (0.5% CMC-Na)): 5.495 ± 3.92 h
main pharmacokinetic parameters, difference between group A and group B ([1]; group B (apigenin 165 mg/kg for 15 days) vs group A (control), rats): no great differences
AUC(0–t) [1, 3]: 6335 ± 1105 ng·h/mL
AUC(0–∞) [1, 3]: 6672 ± 797 ng·h/mL
C max [1, 3]: 797 ± 73 ng/mL
CLz/F [1, 3]: 75.9 ± 9.87 mL/min/kg
MRT(0–t) [1, 3]: 6.573 ± 0.544 h
MRT(0–∞) [1, 3]: 7.504 ± 0.189 h
T max [1, 3]: 4.0 ± 0.003 h
Vz/F [1, 3]: 26.8 ± 4.49 L/kg
t (1/2)z [1, 3]: 4.083 ± 0.436 h
AUC(0–t) [1, 4]: 4797 ± 602 ng·h/mL
AUC(0–∞) [1, 4]: 5050 ± 797 ng·h/mL
C max [1, 4]: 547 ± 91 ng/mL
CLz/F [1, 4]: 101 ± 16.5 mL/min/kg
MRT(0–t) [1, 4]: 7.227 ± 0.525 h
MRT(0–∞) [1, 4]: 8.397 ± 1.545 h
T max [1, 4]: 4.0 ± 0.005 h
Vz/F [1, 4]: 40.7 ± 12.8 L/kg
t (1/2)z [1, 4]: 4.906 ± 2.093 h
C max reduced compared with group B [1, 5]: 19.82%
V z/F decrease compared with group B [1, 5]: 62.10%
AUC(0–t) [1, 6]: 5262 ± 890 ng·h/mL
AUC(0–∞) [1, 6]: 5545 ± 814 ng·h/mL
C max [1, 6]: 639 ± 130 ng/mL
CLz/F [1, 6]: 91.8 ± 13.9 mL/min/kg
MRT(0–t) [1, 6]: 7.326 ± 0.53 h
MRT(0–∞) [1, 6]: 8.679 ± 1.301 h
T max [1, 6]: 3.8 ± 0.447 h
Vz/F [1, 6]: 43.5 ± 16.1 L/kg
t (1/2)z [1, 6]: 5.376 ± 1.495 h
AUC(0−t) increased in comparison with group B [1, 7]: 19.7%
C max increased in comparison with group B [1, 7]: 19.3%
Compound: Cc1ccc(NC(=O)c2ccc(CN3CCNCC3)cc2)cc1Nc1nccc(-c2cccnc2)n1 [N-desmethyl imatinib]

dose dependence of effect on imatinib ([1]; 252 mg/kg vs 165 mg/kg short-time apigenin, rats): not dose dependent
effect on the metabolism of imatinib in vivo ([1]; long-term oral administration of apigenin (165 mg/kg for 15 days), rats): accelerated
effect on the metabolism of imatinib in vivo ([1]; single dose of apigenin, rats): inhibited
Compound: O=c1cc(-c2ccc(O)cc2)oc2cc(O)cc(O)c12 [apigenin, reference compound]

V z/F decreased (printed: in group B) ([1]; male, Sprague-Dawley, rat, in vivo, 30 mg/kg): 55.1%
AUC(0-t) ([1]; male, Sprague-Dawley, rat, in vivo, po, 30 mg/kg, AUC(0–t)): 90600 ± 11300 ng·h/mL
AUC(0-inf) ([1]; male, Sprague-Dawley, rat, in vivo, po, 30 mg/kg, AUC(0–∞)): 91000 ± 11600 ng·h/mL
Cmax ([1]; male, Sprague-Dawley, rat, in vivo, po, 30 mg/kg, C max): 12100 ± 2020 ng/mL
Tmax ([1]; male, Sprague-Dawley, rat, in vivo, po, 30 mg/kg, T max): 3 ± 1 h
Compound: Cc1ccc(NC(=O)c2ccc(CN3CCN(C)CC3)cc2)cc1Nc1nccc(-c2cccnc2)n1 [imatinib, reference compound]
oral bioavailability [2]: ~97%
